Results on 27 compounds are retold here after patent US6900216B2, “Dihydroimidazo[2,1-b]thiazole and dihydro-5h-thiazolo[3,2-A]pyrimidines as antidepressant agents” (Knoll GmbH, priority 2000, dated 2005).

By melting point is commonly meant the temperature, or range, at which the solid turns liquid. Usually Ki stands for a measure of affinity in units of concentration, obtained from inhibition or displacement.

In data set [1] the target is T1, noradrenaline (NA) reuptake sites (Rattus norvegicus, UniProt Q63380).
T1 construct: Frontal cortical tissue from the brains of male Charles River rats; from tissue; host or cells: rat frontal cortical membranes
Kind of data set: NA uptake: displacement of [3H]nisoxetine from noradrenaline reuptake sites, rat frontal cortical membranes. In kind it is binding. To be noted: for inhibition at 1 µM: read-out: NA uptake % displacement at 10^−6 M; for Ki: [3H]nisoxetine 0.6 nM, rat frontal cortical membranes, fit to data from three experiments. The procedure:
Frontal cortical tissue from the brains of male Charles River rats weighing 150-250 g was homogenised in ice-cold 50 mM Tris-HCl, pH 7.4 (at 25° C.) containing 120 mM sodium chloride and 5 mM potassium chloride (Tris buffer; 1:60 w/v) using a Kinematic polytron (speed setting 6 for 10 seconds) and centrifuged at 40,000 g for 10 minutes. The supernatant was discarded and the pellet rehomogenised in Tris buffer, 1:60 w/v, and centrifuged at 40,000 g for 10 minutes. This step was repeated twice more so that, in total, the brain tissue was homogenised and centrifuged four times. The final pellet was resuspended in 50 mM Tris-HCl, pH 7.4 containing 300 mM sodium chloride and 5 mM potassium chloride (equivalent to 18.75 mg wet weight of tissue/ml) and used immediately in the binding assay. All centrifugations were performed at 4° C.
Membranes (400 μl; equivalent to 7.5 mg wet weight of tissue/tube) were incubated with 50 μl [^3H]nisoxetine at a single concentration of 0.6 nM and 50 μl of distilled water (total binding) or 50 μl^− of test compound (at a single concentration 10^−6M or at 10 concentrations ranging from 10^−11-10^−3 M) or 50 μl of mazindol (1 μM; non-specific binding) for 4 h at 4° C. Membrane bound radioactivity was recovered by filtration under vacuum through Skatron 11734 filters using a Skatron cell harvester. Filters were rapidly washed with ice-cold 50 mM Tris-HCl, pH 7.4 containing 120 mM sodium chloride and 5 mM potassium chloride (wash setting 9,9,0). The scored filter paper discs were punched out into vials, scintillation fluid added and radioactivity determined by liquid scintillation counting.
For each of these tests measuring the ability of compounds of Formula I to displace standard ligands from 5-HT1A receptors and 5-hydroxytryptamine (5-HT) and noradrenaline (NA) reuptake sites and muscarinic receptors in vitro, the percentage displacement of specific binding of tritiated ligand by 10^−6 M test compound was calculated in the following way.
Firstly, specific binding of tritiated ligand in the absence (A) and presence (B) of test compound was determined:
In the absence of compound: A(dpm)=Total binding (dpm)−Non-specific binding (dpm) In the presence of compound (10^−6 M): B(dpm)=Binding at 10^−6M (dpm)−Non-specific binding (dpm)
The specific binding of tritiated ligand in the presence (B) of compound was then converted to a percentage of specific binding of tritiated ligand in the absence (A) of compound: % Specific binding at 10^−6 M=B(dpm)/A(dpm)×100
The percentage displacement of specific binding of tritiated ligand by the test compound (10^−6 M) was then obtained by subtraction of the percentage specific binding in the presence of compound from the percentage specific binding in the absence of compound, which is taken as the maximum binding and so equals 100%:
% Displacement at 10^−6 M=100−% Specific binding at 10^−6 M.
In some cases, displacement curves were then produced for compounds which displaced ≧50% of specific binding of the tritiated ligand at 10^−6 M using a range of concentrations of the compound. The Ki was then calculated by simultaneous fitting using equations derived from the Feldman equations by robust non-linear regression to data from three experiments simultaneously (De Lean et al., 1978; Munson and Rodbard, 1980; Feldman, 1992). Munson P J and Rodbard D. Ligand: a versatile computerised approach for characterisation of ligand binding systems. Anal Biochem 1980; 107: 220. Feldman HA. Mathematical theory of complex ligand binding systems at equilibrium: some methods for parameter fitting. Anal Biochem 1992: 48, 317. De Lean A, Munson P J and Rodbard D. Simultaneous analysis of families of sigmoidal curves: application to bioassay, radioligand assay, and physiological dose-response curves. Am J Physiol 1978: 235 (2), E97-E102. […]
A general note: Loss of bound radioactivity is the signal in a displacement assay; it reports binding, not function.

Where two headings read alike, the source gives them in different places.

T1 sequence (Q63380 1-617): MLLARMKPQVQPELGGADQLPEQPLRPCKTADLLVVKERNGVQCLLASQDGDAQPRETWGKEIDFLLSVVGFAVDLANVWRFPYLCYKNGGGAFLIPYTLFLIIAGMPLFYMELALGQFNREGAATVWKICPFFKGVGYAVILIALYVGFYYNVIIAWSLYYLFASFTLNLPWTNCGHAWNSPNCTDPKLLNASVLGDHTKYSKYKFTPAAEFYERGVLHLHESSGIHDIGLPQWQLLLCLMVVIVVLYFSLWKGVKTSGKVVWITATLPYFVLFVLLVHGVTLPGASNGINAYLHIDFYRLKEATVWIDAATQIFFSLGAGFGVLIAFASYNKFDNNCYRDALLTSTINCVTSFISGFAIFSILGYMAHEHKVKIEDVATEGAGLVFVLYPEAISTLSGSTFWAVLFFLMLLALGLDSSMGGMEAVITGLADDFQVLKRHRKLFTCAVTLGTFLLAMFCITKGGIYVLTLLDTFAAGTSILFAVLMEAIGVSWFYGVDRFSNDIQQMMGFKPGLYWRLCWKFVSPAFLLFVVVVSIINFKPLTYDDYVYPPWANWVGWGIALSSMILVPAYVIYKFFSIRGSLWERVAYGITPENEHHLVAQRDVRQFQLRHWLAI

In turn, `Br.Clc1cccc2sc(C3=CSC4=NCCN34)cc12` [Example 1, 3-(4-chlorobenzo[b]thiophen-2-yl)-5,6-dihydroimidazo[2,1-b]thiazole hydrobromide] yielded a melting point of 273 to 274 °C. Moreover, the inhibition at 1 µM in data set [1] turned out to be 103%.

Compound `C1=C(c2cccc3sccc23)N2CCN=C2S1.Cl` [Example 2, 3-(benzo[b]thiophen-4-yl)-5,6-dihydroimidazo[2,1-b]thiazole hydrochloride] had a melting point of 246 to 249 °C. The same compound showed a Ki in data set [1] of 9.1 nM.

With `OCC1=C(c2cccc3sccc23)N2CCN=C2S1` [Example 3, [3-(benzo[b]thiophen-4-yl)-5,6-dihydroimidazo[2,1-b]thiazol-2-yl]methanol], the melting point was 145 to 149 °C. In data set [1], this compound registered an inhibition constant (Ki) of 2.9 nM.

Turning to `OCC1=C(c2cc3c(Cl)cccc3s2)N2CCN=C2S1` [Example 4, [3-(4-chlorobenzo[b]thiophen-2-yl)-5,6-dihydroimidazo[2,1-b]thiazol-2-yl]methanol], the melting point was in the range of 170 to 172 °C. Further, in data set [1], the inhibitory constant (Ki) came out at 25 nM.

Compound `Cl.Fc1cccc2sc(C3=CSC4=NCCN34)cc12` [Example 5, 3-(4-fluorobenzo[b]thiophen-2-yl)-5,6-dihydroimidazo[2,1-b]thiazole hydrochloride] showed a melting point of 220 to 224 °C. The inhibition at 1 µM in data set [1] came out at 100%.

For `Br.CC1=C(c2cc3ccccc3s2)N2CCN=C2S1` [Example 6, 3-(benzo[b]thiophen-2-yl)-2-methyl-5,6-dihydroimidazo[2,1-b]thiazole hydrobromide], the melting point was 257 to 259 °C (dec.). This compound also yielded a Ki in data set [1] of 21 nM.

`Br.CC1=C(c2cc3c(F)cccc3s2)N2CCN=C2S1` [Example 7, 3-(4-fluorobenzo[b]thiophen-2-yl)-2-methyl-5,6-dihydroimidazo[2,1-b]thiazole hydrobromide] displayed a melting point of 224 to 226 °C. The compound further showed a Ki in data set [1] of 9.5 nM.

`Br.CC1=C(c2cccc3sccc23)N2CCN=C2S1` [Example 8, 3-(benzo[b]thiophen-4-yl)-2-methyl-5,6-dihydroimidazo[2,1-b]thiazole hydrobromide] returned a Ki in data set [1] of 6.1 nM. This counts as single-digit nanomolar.

Turning to `CC1=C(c2cccc3sccc23)N2CCN=C2S1.Cl` [Example 9, 3-(benzo[b]thiophen-4-yl)-2-methyl-5,6-dihydroimidazo[2,1-b]thiazole hydrochloride], in data set [1], the Ki amounted to 5.9 nM. The Ki values of the last two compounds are within 1.5-fold of each other.

`Br.CC1=C(c2cc3c(Cl)cccc3s2)N2CCN=C2S1` [Example 10, 3-(4-chlorobenzo[b]thiophen-2-yl)-2-methyl-5,6-dihydroimidazo[2,1-b]thiazole hydrobromide] returned a melting point of 246 to 248 °C. The compound also gave a Ki in data set [1] of 69.5 nM.

In the case of `Br.CCC1=C(c2cc3cc(Cl)ccc3s2)N2CCN=C2S1` [Example 11, 3-(5-chlorobenzo[b]thiophen-2-yl)-2-ethyl-5,6-dihydroimidazo[2,1-b]thiazole hydrobromide], the melting point was in the range of 282 to 284 °C. Further, the inhibition at 1 µM in data set [1] amounted to 92%.

With `Br.Oc1cccc2sc(C3=CSC4=NCCN34)cc12` [Example 12, 2-(5,6-dihydroimidazo[2,1-b]thiazol-3-yl)benzo[b]thiophen-4-ol hydrobromide], the affinity in data set [1] corresponds to a Ki of 5.8 nM. That is a single-digit nanomolar value.

Turning to `Br.CCC1=C(c2cccc3sccc23)N2CCN=C2S1` [Example 13, 3-(benzo[b]thiophen-4-yl)-2-ethyl-5,6-dihydroimidazo[2,1-b]thiazole hydrobromide], the melting point fell in the range of 144 to 146 °C. Further, affinity in data set [1] was put at a Ki of 3.6 nM.

Compound `Cc1cccc2sc(C3=CSC4=NCCN34)cc12.Cl` [Example 14, 3-(4-methylbenzo[b]thiophen-2-yl)-5,6-dihydroimidazo[2,1-b]thiazole hydrochloride] returned a melting point of 238 to 245 °C. In data set [1], the inhibition at 1 µM came out at 87%.

Compound `OCC1=C(c2cc3ccccc3s2)N2CCN=C2S1` [Example 15, [3-(benzo[b]thiophen-2-yl)-5,6-dihydroimidazo[2,1-b]thiazol-2-yl]methanol] came in with a melting point of 138 to 140 °C. Further, in data set [1], the Ki turned out to be 18 nM.

`Br.CC1=C(c2cc3c(C)cccc3s2)N2CCN=C2S1` [Example 16, 2-methyl-3-(4-methylbenzo[b]thiophen-2-yl)-5,6-dihydroimidazo[2,1-b]thiazole hydrobromide] yielded a melting point of 201 to 204 °C. In data set [1], the inhibition at 1 µM came to 83%.

For `Br.CC1=C(c2cc3c(Cl)cccc3s2)N2CCCN=C2S1` [Example 17, 3-(4-chlorobenzo[b]thiophen-2-yl)-2-methyl-6,7-dihydro-5H-thiazolo[3,2-a]pyrimidine hydrobromide], the melting point was 236 to 238 °C. In data set [1], the inhibition at 1 µM was 84%.

As to `Br.CCC1=C(c2cc3c(Cl)cccc3s2)N2CCN=C2S1` [Example 18, 3-(4-chlorobenzo[b]thiophen-2-yl)-2-ethyl-5,6-dihydroimidazo[2,1-b]thiazole hydrobromide], the melting point lay in the range of 187 to 189 °C. In data set [1], the affinity corresponds to a Ki of 29.5 nM.

As for `CSC1=C(c2cc3ccccc3s2)N2CCN=C2S1` [Example 19, 3-(benzo[b]thiophen-2-yl)-2-(methylthio)-5,6-dihydroimidazo[2,1-b]thiazole], the melting point lay in the range of 95 to 97 °C. In addition, in data set [1], the Ki was found to be 5.3 nM.

Compound `Br.CC1=C(c2cc3cccc(Cl)c3s2)N2CCN=C2S1` [Example 20, 3-(7-chlorobenzo[b]thiophen-2-yl)-2-methyl-5,6-dihydroimidazo[2,1-b]thiazole hydrobromide] came in with a melting point of 294 to 295 °C. Besides, the inhibition at 1 µM in data set [1] came out at 47%.

As to `Br.CC1=C(c2ccc3sccc3c2)N2CCN=C2S1` [Example 21, 3-(benzo[b]thiophen-5-yl)-2-methyl-5,6-dihydroimidazo[2,1-b]thiazole hydrobromide], the melting point was determined as 285 °C. This compound gave a Ki in data set [1] of 5.5 nM.

Compound `CSC1=C(c2cccc3sccc23)N2CCN=C2S1.Cl` [Example 22, 3-(benzo[b]thiophen-4-yl)-2-(methylthio)-5,6-dihydroimidazo[2,1-b]thiazole hydrochloride] came in with a melting point of 95 to 105 °C. In data set [1], this compound showed a Ki of 1.5 nM.

Regarding `CC1=C(c2cccc3ccsc23)N2CCN=C2S1.Cl` [Example 23, 3-(benzo[b]thiophen-7-yl)-2-methyl-5,6-dihydroimidazo[2,1-b]thiazole hydrochloride], the melting point is 210 to 212 °C. The Ki in data set [1] was 4 nM.

In turn, `Br.CC1=C(c2cc3c(Cl)c(Cl)ccc3s2)N2CCN=C2S1` [Example 24, 3-(4,5-dichlorobenzo[b]thiophen-2-yl)-2-methyl-5,6-dihydroimidazo[2,1-b]-thiazole hydrobromide] registered a melting point of 244 to 246 °C. Further, the inhibition at 1 µM in data set [1] came out at 39%.

As for `Br.CC1(c2cc3cc(F)ccc3s2)CSC2=NCCN21` (stereo not drawn) [Example 27, 3-(5-fluorobenzo[b]thiophen-2-yl)-3-methyl-5,6-dihydroimidazo[2,1-b]thiazole hydrobromide], the inhibition at 1 µM in data set [1] was 72%.

Take `CC(C)C1=C(c2ccc3sccc3c2)N2CCN=C2S1` [Example 29, 3-(benzo[b]thiophen-5-yl)-2-(1-methylethyl)-5,6-dihydroimidazo[2,1-b]-thiazole]: in data set [1], the Ki came out at 3.7 nM.

For the compound `CSC1=C(c2ccc3sccc3c2)N2CCN=C2S1` [Example 30, 3-(benzo[b]thiophen-5-yl)-2-(methylthio)-5,6-dihydroimidazo[2,1-b]thiazole], the inhibition at 1 µM in data set [1] (10^−6 M test compound, single determination, [3H]nisoxetine) was found to be 101%.
